Values quoted from earlier work, collected in US20130122120A1, “INSECTICIDAL COMPOSITIONS AND METHODS” (priority 2011, published 2013).

Tests used:
aphids = settings: nymphs and adults
[1] = applied directly to skin or consumed

CCCCCCCCCCCCOS(=O)(=O)[O-].[Na+] [Sodium lauryl sulfate, Sodium dodecyl sulfate]
Ames (bacterial mutation) test result (bacterial mutation): negative | aggregation number (at the CMC): about 62 | critical micelle concentration (CMC) (pure water at 25° C.): 8.2 mM | efficacy against aphids (aphids): some limited efficacy for treating aphids, killing the nymphs, but merely delays death in adults | carcinogenicity [1]: not carcinogenic
